Values joined by “and” are separate entries in the source; they are usually repeats but may differ in a detail not shown here. Equal entries are not always repeated.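 Protocol summary: plate cells (96-well), add compound at 5 concentrations, incubate 48 h, interpolate endpoints linearly. GI50 is the concentration that inhibits growth by half. TGI: total growth inhibition.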

Test in all cases: NCI tumour cell line growth inhibition, 48 h
In assay [1] the test system is DMS 114 small cell lung.
Assay [2] has as its system KM20L2 colon.
Assay [3] deals with HOP-18 NSCLC.
For assay [4], the system named is BT-549 breast.
Assay [5] concerns MCF7 breast.
Assay [6] has as its system MDA-N.
The subject of assay [7] is NCI/ADR-RES ovarian.
Assay [8] has as its system T-47D breast.
Assay [9] deals with XF 498 CNS.
In assay [10] the test system is P388/ADR leukemia.

As for `CC(=O)OCC(OC(C)=O)C(OC(C)=O)C(OC(C)=O)C(=O)CNn1c(-c2ccccc2Cl)nc2ccccc2c1=O` (centres undefined), the TGI in assay [1] and in assay [2] was above 100 µM in each case.
For `COC(=O)C(=O)C(C(=O)C(=O)Nc1cccc(C(C)=O)c1)c1nc2ccccc2[nH]c1=O` (centres undefined), the TGI in assay [1], in assay [3] and in assay [2] was above 100 µM each time.
Take `Cc1ccc(-c2cc(-c3ccco3)c(C#N)c(=O)n2C2OC(OC(=O)c3ccccc3)C(OC(=O)c3ccccc3)C2OC(=O)c2ccccc2)cc1` (centres undefined): the TGI in assay [1], in assay [3] and in [2] was above 100 µM each time.
For the molecule `O=c1cccc(C2CC(CO)C3CCCCN3C2)[nH]1` (centres undefined), the TGI in assay [4], in [5], in [6], in [7] and in [8] was above 100 µM each time.
`O=[N+]([O-])c1cnn(C2=CNc3ccccc3N=C2)c1`: the TGI in [3], in assay [2] and in assay [9] was above 100 µM each time.
On to `O=C(c1ccncc1)n1nc(-c2ccccc2)c(N=Nc2ccccc2[N+](=O)[O-])c1-c1ccccc1`, for which the TGI in assay [1] and in [9] was above 100 µM throughout.
On to `Cc1cccc(-n2c(=S)[nH]c3c(sc(=O)n3-c3ccccc3C)c2=O)c1`, for which the TGI in [1], in [3] and in assay [2] was above 100 µM in each case.
On to `COc1ccc(/C=C\c2cc(OC)c(O[Si](C)(C)C(C)(C)C)c(OC)c2)cc1`, for which the TGI is 91.4 µM in [1], above 100 µM in [2] and 49.5 µM in [9].
`Cc1cccc(C)c1NC(=O)C1C(=O)N(c2c(C)cccc2C)C(=O)/C1=N\NC(N)=S` (centres undefined): the TGI in assay [1], in assay [3] and in assay [2] was above 100 µM each time.
Consider `COC(=O)c1ccccc1NC(=O)C(=O)NNC(=O)c1ccncc1`, for which the TGI in assay [1], in [3], in assay [2] and in assay [9] was above 100 µM each time.
Regarding `CC[O-].CC[O-].O=S(=O)([O-])c1ccc([O-])c2ncccc12.O=S(=O)([O-])c1ccc([O-])c2ncccc12.[Ti+4]`, the GI50 in assay [1] is 74.7 µM; in assay [3] it was above 100 µM; in [2], 39.7 µM. Moreover, the TGI in assay [1], in assay [3] and in [2] was above 100 µM in each case.
For `COC(=O)C(CC(=O)Nc1ccc(C)cc1)C(=O)C(=O)Nc1ccccc1C(C)C` (centres undefined), the TGI in assay [1], in assay [3], in [2] and in [9] was above 100 µM throughout.
As to `CC(=O)NC(CCCCNC(=O)NCCCl)C(=O)NCc1ccccc1` (centres undefined), the TGI in [1], in assay [3], in assay [2] and in [9] was above 100 µM throughout.
`C/C(=N\N(c1ccccc1)c1ccccc1)c1c(O)cc(C)oc1=O`: the TGI in assay [3] and in [2] was above 100 µM each time.
With `CCOC(=O)c1s/c(=N\Nc2nc3ccccc3cc2C2OCCO2)n(Cc2ccccc2)c1C`, the TGI in assay [1], in assay [3], in assay [2] and in assay [9] was above 100 µM in each case.
As to `N#CCCN(CCC#N)c1ccc(C(Sc2ccccc2)C(NC(=O)c2cc([N+](=O)[O-])ccc2Cl)C(=O)Sc2ccccc2)cc1` (centres undefined), the GI50 in assay [1] was 1.34 µM. Also, the TGI in assay [1] was 7.78 µM and 4.1 µM; in [3], 47.3 µM; in assay [2] it was 6.47 µM and 11.3 µM; in assay [9], 21.3 µM.
As to `CCOP(=O)(OCC)OC(C#N)c1ccc(-c2ccccc2)cc1` (centres undefined), the TGI is 29.6 µM in assay [1], 98.2 µM in [3], above 100 µM in assay [2] and 50.1 µM in [9].
In the case of `CC1C(=O)OCC2=CCN3CCC(OC(=O)C(C)C1(C)O)C23` (centres undefined), the TGI in assay [4], in assay [6], in [7] and in assay [8] was above 100 µM each time.
With `NC(N)=NCCC1OC(=O)C2=C1c1c(O)ccc3nccc(c13)O2` (centres undefined), the GI50 in assay [5] was above 100 µM; in [6], above 100 µM; in assay [7], above 100 µM; in assay [8], 95.1 µM. Also, the TGI in assay [5], in assay [6], in [7] and in [8] was above 100 µM in each case.
In the case of `CCOC(=O)C1(C#N)C(c2ccccc2)CC(O)(c2ccc(Cl)cc2)C(C(=O)c2ccc(Cl)cc2)C1c1ccccc1` (centres undefined), the TGI in assay [1], in [3], in [2] and in assay [9] was above 100 µM each time.
Take `C/C(CCc1ccccc1)=N\NC(N)=S`: the TGI in assay [1], in assay [3], in assay [2] and in [9] was above 100 µM in each case.
With `COC(=O)C1=C(C(=O)OC)SC(=CC#CC=C2SC(C(=O)OC)=C(C(=O)OC)S2)S1`, the TGI in assay [1] was above 60.7 µM; in [3], 45.9 µM; in [2], 71.6 µM; in assay [9] it was 19.1 µM.
For `O=C(N/N=C(/CCN1CCCC1)CC(c1ccccc1)c1c(O)c2ccccc2oc1=O)c1ccncc1` (centres undefined), the TGI in assay [3] and in assay [2] was above 100 µM in each case.
In the case of `CN1CC[C@]2(C)c3ccc(O)cc3CC3CCCC1C32C` (some centres undefined), the TGI in assay [1], in assay [3], in [2] and in assay [9] was above 100 µM throughout.
For the molecule `COc1ccc(-c2oc3c(OC)c(OC)c(OC)c(OC)c3c(=O)c2OC)cc1OC`, the TGI in [4] is above 100 µM; in [5], above 100 µM; in assay [6] it was above 100 µM; in assay [7] it was 74 µM; in [8], above 100 µM.
With `Cc1cc(C)c(C(=O)c2no[n+]([O-])c2C(=O)c2c(C)cc(C)c(Br)c2C)c(C)c1Br`, the TGI in assay [1] was 23.4 µM; in assay [2], 32.9 µM.
Consider `CCCCN(CCCC)c1c([N+](=O)[O-])c(=O)nc2ccccn12`, for which the results for the TGI in assay [1], in [2] and in [9] were 49.6 µM, above 100 µM and 79.6 µM, respectively.
Turning to `COc1ccc(Cn2c3c(cc(OS(=O)(=O)C(F)(F)F)c2=O)Cc2ccccc2-3)cc1`, the GI50 in [4] is 19900 nM; in assay [6], 7.55 µM; in assay [7], 3.03 µM; in assay [8], 16.6 µM. Besides, the TGI was 50 µM and > 100 µM in assay [4]; 50 µM and > 100 µM in assay [6]; 50 µM and > 100 µM in assay [7]; 50 µM and > 100 µM in assay [8].
As for `Cc1ccc(-c2cc(-c3ccccc3)c(C#N)c(=O)n2C2OC(CO)C(O)C(O)C2O)cc1` (centres undefined), the TGI in assay [1], in [3] and in [2] was above 100 µM in each case.
Turning to `NC(=S)NNc1c([N+](=O)[O-])cnn(-c2ccccc2)c1=O`, the TGI in [1] was 33.2 µM; in assay [2], 29.8 µM; in [9], 32.6 µM.
As to `CC(CCC(=O)O)C(=O)O` (centres undefined), the TGI in assay [4], in [5], in assay [6], in [7] and in assay [8] was above 100 µM each time.
Take `COc1ccc(/C=C2\CCCC(C(NO)c3ccc(OC)cc3)C2=NO)cc1` (centres undefined): the TGI in assay [1], in [3] and in assay [2] was above 100 µM in each case.
Take `CCOC(=O)c1cc(/C=C/C(C)=C/C(=O)OC)oc1C`: the TGI in assay [1], in assay [2] and in assay [9] was above 100 µM in each case.
For the molecule `COC1OC(CO)C(O)C1N` (centres undefined), the TGI in assay [1], in assay [3] and in assay [2] was above 100 µM throughout.
On to `CS(=O)(=O)CSCSSCS(C)(=O)=O`, for which the TGI in assay [1] is above 92.1 µM; in [3] it was above 100 µM; in [2] it was above 100 µM; in [9], 75.6 µM.
With `CN(C)CC1CCC/C1=N\O` (centres undefined), the TGI in assay [3] and in [2] was above 100 µM each time.
In the case of `OC1(c2ccccc2)OC(C#Cc2ccccc2)(c2ccccc2)c2ccccc21` (centres undefined), the TGI is 9.01 µM in assay [1], 13.6 µM in assay [2] and 19.8 µM in [9].
`C[C@]12CCCC(=O)C1(O)C[C@H](C(=O)O)CC2` (some centres undefined): the TGI in assay [1], in assay [3], in assay [2] and in assay [9] was above 100 µM each time.
For `CC1=C(C(=O)Nc2cccc(Cl)c2)C(c2ccccc2F)C(C(=O)Nc2cccc(Cl)c2)=C(C)N1`, the results for the TGI in assay [1] and in assay [2] were 30.6 µM and 24.3 µM, respectively.
Turning to `CN(C)/N=C(/c1nc2ccc(Cl)cc2[nH]c1=O)C(O)c1ccc(C(O)/C(=N\N(C)C)c2nc3ccc(Cl)cc3[nH]c2=O)cc1` (centres undefined), the TGI in assay [1] and in assay [2] was above 100 µM throughout.
Regarding `NCCCCNc1ccc2c(=O)[nH][nH]c(=O)c2c1`, the TGI in assay [1], in [3] and in assay [2] was above 100 µM throughout.
Turning to `CC[C@]1(O)C(=O)OCc2c1cc1n(c2=O)Cc2cc3c(N)cccc3nc2-1`, the TGI in assay [1], in assay [3], in assay [2] and in [9] was above 100 µM throughout.
For the molecule `CC(C)c1cccc(C(C)C)c1NC(=O)/C(CC(=O)CC(c1ccccc1)c1c(O)c2ccccc2oc1=O)=N/O` (centres undefined), the TGI in [4], in assay [5], in [6], in assay [7] and in assay [8] was above 100 µM in each case.
For `Nc1ccc(C(=O)CC(N)C(=O)O)cc1O` (centres undefined), the TGI in assay [4], in assay [5], in assay [6], in assay [7] and in assay [8] was above 100 µM in each case.
On to `COC1C2C=CC(C2)[C@H]1[N+](=O)[O-]` (some centres undefined), for which the TGI in assay [1] and in [2] was above 100 µM in each case.
With `C/C=C1\NC(=O)[C@H]2CSSCCC=C[C@H](CC(=O)N[C@H](C(C)C)C(=O)N2)OC(=O)[C@H](C(C)C)NC1=O`, the GI50 is < 10 nM and 0.0646 nM and < 11.1 nM in assay [4]; below 0.01 µM in assay [5]; 1.98 µM and 0.676 µM in assay [7]; below 0.01 µM in assay [8]. Besides, the TGI was 0.00885 µM in assay [1]; 0.054 µM and 0.0719 µM in assay [3]; 0.00796 µM in assay [2]; 0.0148 µM and 0.00981 µM and 0.0352 µM in assay [5]; 0.0176 µM and < 0.0319 µM in [6]; 27.7 µM and 11.2 µM in assay [7]. In addition, the TGI in assay [10] is 0.125 µM; in [8], < 0.01 µM and 0.0103 µM; in [9], 0.0155 µM and 0.0624 µM.
As for `N.N.N.N.O=C([O-])C(Cl)Cl.O=C([O-])C(Cl)Cl.[Co+3].[O-][Cl+3]([O-])([O-])[O-]`, in assay [2], the GI50 was above 100 µM and the TGI is above 100 µM.

The record behind these values is PubChem BioAssay (NCI).
